Reference: patent US6433007B1, “Methods for the prevention and treatment of post-surgical complications” (Alcon Manufacturing, Ltd., priority 1998, dated 2002)

System: vitrectomy-induced PSC formation
Test: Post-vitrectomy posterior subcapsular cataract (PSC) formation in Dutch Belted rabbits, surgical irrigating solution
Format: in vivo, Dutch Belted rabbit
Settings: for Incidence of Lens Line Suture Distortion: irrigating solution w/1.0 μM Compound X, rabbit, affected lenses/total lenses
Procedure: The following example illustrates the reduction in frequency of post-vitrectomy cataract formation, employing a surgical irrigating solution containing a compound of formula (I).
Age-matched, Dutch Belted rabbits were used in this study. At 2.5 months of age, unilateral, partial vitrectomy (vitreous replaced by irrigating solution) was performed. Briefly, rabbits (1.5-2.0 kg) were prepared for surgery by subcutaneous administration of atropine to maintain heart rate and limit lung and oropharynx fluid accumulation. Animals were then anesthetized by intramuscular administration of ketamine (45 mg/kg) and xylazine (6 mg/kg). Anesthesia was maintained by re-administration of half-doses of anesthetic every 35-45 minutes as needed. For pupil dilatation, phenylephrine HCL and cyclopentolate HCL were administered topically to the surgical eye (OD). The nonsurgical eye (OS) received Duratears and was then taped shut to prevent loss of moisture. Immediately prior to surgery, proparacaine was administered topically to the OD eye and a speculum inserted. […] Two sutures were placed in a figure eight (4 and 8 o'clock position), about 4.5 mm from the limbus, to accommodate the outer port suction cutter and endoilluminator, respectively. An inner port infusion cannula was sutured through the pars plana (6 o'clock position) about 4 mm from the limbus. Two additional punctures were made with a V-lance stiletto knife (20 gauge) for the instrument entry through the outer ports. Two sutures were then placed (3 and 9 o'clock position) in the sclera, approximately 1 mm from the limbus, to facilitate manipulation of the eye and to secure the metal contact lens holder. Viscoat® (125 μL) was then applied to the cornea followed by the placement of a wide angle lens onto the cornea. The vitreous was then removed using the SERIES TEN THOUSAND® OCUTOME® posterior-segment surgical system for 10 minutes by a combination of cutting (500 cuts/minute) and suction (90 mm Hg), while continually supplying BSS® or BSS Plus® irrigating solution, or an irrigating solution containing Compound X (1.0 μM) (at room temperature), at a rate of approximately 3.5 mL/minute and an ocular fluid pressure of 35 mm Hg. Upon completion of the surgery, instruments were withdrawn, infusion pressure reduced to 22 mm Hg, sclerotomies closed, and the conjunctiva reapproximated at the limbus with sutures. A typical surgical procedure required approximately 40-50 minutes, utilizing approximately 100 mL of irrigation solution. The amount of vitreous replaced was approximately 1.5 mL. At various times following vitrectomy, lenses were excised and immediately examined by low resolution light microscopy. Photographs were taken with a digital camera for a later assessment of line suture defects.
The results of this study document the early development of PSC in the Dutch Belted rabbit following vitrectomy, as quantified by scoring for the presence of distorted suture branches and sub-branches. […] Comparison of the effect of vitrectomy with standard irrigation and the Compound X-supplemented irrigation 3 month post-surgery indicated a high incidence of an acute distortion of normally straight line sutures for animals of the standard irrigation treatment groups (Table 1) but not the Compound X treated animals. […] This abnormal condition was further aggravated at […] post-vitrectomy, as recognized by the extension of existing sub-branches and the development of additional small sub-branches. […] This condition was essentially maintained throughout twelve months post-vitrectomy.
In contrast, 86% (or 6 out of 7 lenses) of the lenses from the Compound X treatment group were unaffected by vitrectomy with an average suture defect score of +1.7 at this same time point. The lens scores of animals treated with the Compound X supplemented therapeutic irrigation solution were essentially identical to those of naive controls (scoreavg=+1.63). […]

With `COc1ccc2cc([C@H](C)C(=O)OCC[C@@]3(C)CCc4c(C)c(O)c(C)c(C)c4O3)ccc2c1` [Compound X, (S)-6-methoxy-[…]-methyl-naphthaleneacetic acid, (R)-2-(3,4-dihydro-6-hydroxy-2,5,7,8-tetramethyl-2H-1-benzopyran-2-yl)ethyl ester] the “rate of lens growth” value (3-12 months post-surgery, compared to naive controls, 1.0 μM in irrigating solution during vitrectomy) was “essentially identical to that of naive controls”, the “Incidence of Lens Line Suture Distortion” value (3 month post-Vitrectomy) was 0/8 and the “Incidence of Lens Line Suture Distortion” value (6 month post-Vitrectomy) was 1/7. The “Incidence of Lens Line Suture Distortion” value (12 month post-Vitrectomy) was 1/7, the “lenses unaffected by vitrectomy” value (12 months post-vitrectomy, 6 out of 7 lenses, 1.0 μM in irrigating solution) was 86% and the “average suture defect score” value (12 months post-vitrectomy, scale 0 (straight line suture) to +6 (very crooked suture pattern with many sub-branches or mature cataract), naive controls +1.63) was “+1.7”. The “lens suture appearance (distortion, sub-branches)” value (six months post-surgery, essentially maintained throughout twelve months post-vitrectomy, low resolution light microscopy) was “only slightly distorted suture branches which, on average, were devoid of sub-branches”.
